This passage reports inhibition, IC50 and melting point results from publication PMC9848270, “Synthesis and biological assessment of indole derivatives containing penta-heterocycles scaffold as novel anticancer agents towards A549 and K562 cells” (Journal of Enzyme Inhibition and Medicinal Chemistry, 2023).

The subject of data set [1] is normal cell line (HEK293). Description: MTT cytotoxicity, normal cell line HEK293. The data set is classed as cell-based, human. To be noted: Homo sapiens, HEK293; 10 μM; read-out: Inhibition rate, HEK293.
The nature of data set [2]: MTT cytotoxicity, normal cell line HEK293. The format is cell-based, human. Particulars: human, HEK293 cells (normal cell line); MTT assay, 48 h; normal cell line; CC50; read-out: In vitro cytotoxicity IC50, HEK293. In general terms: Tetrazolium assays rely on reduction of a dye to a coloured formazan, in cell work by metabolically active cells.
Data set [3] relates to human prostate cancer cells (PC-3). Description: MTT antiproliferative assay, PC-3. The format is cell-based. To be noted: Homo sapiens; for IC50: 48 h, MTT assay, read-out: In vitro cytotoxicity IC50, PC-3; for inhibition at 10 µM: read-out: Inhibition rate, PC-3. The procedure:
(§1) A549, PC-3, HepG2 and K562 cells were purchased from the Kunming cell bank of the Chinese academy of sciences. All cell lines were cultured in DMEM or RPMI 1640 complete medium. Logarithmic growth cells were cultured in 96-well plates at a concentration of 10^4 cells per well and pre-cultured for 24 h before adding test compounds. The MTT test with 5-Fluorouracil and Gefitinib as reference compounds were used to evaluate antiproliferative activity of target compounds in four human cancer line cells. For the estimation of the inhibition concentration (IC50), the Graph Pad Prism (GraphPad Software, San Diego, CA) was used.

Data set [4] has as its system human liver cancer cells (HepG2). Nature of the data set: MTT antiproliferative assay, HepG2. The format is cell-based. To be noted: for inhibition at 10 µM: read-out: Inhibition rate, HepG2; for IC50: MTT assay, 48 h, read-out: In vitro cytotoxicity IC50, HepG2. The procedure:
as §1

In data set [5] the test system is human chronic myeloid leukaemia cells (K562). Description: MTT antiproliferative assay, K562. The data set is classed as cell-based. To be noted: for inhibition at 10 µM: K562, 10 μM, read-out: Inhibition rate, K562; for IC50: K562, 48 h, MTT assay, 48 h, read-out: In vitro cytotoxicity IC50, K562. How it is done:
as §1

For data set [6], the system named is human non-small cell lung cancer cells (A549). Nature of the data set: MTT antiproliferative assay, A549. The data set is classed as cell-based. To be noted: for inhibition at 10 µM: A549, 10 μM, read-out: Inhibition rate, A549; for IC50: A549, 48 h, MTT assay, 48 h, read-out: In vitro cytotoxicity IC50, A549. How it is done: as §1

`COc1cc(-c2nnc(SCC(=O)Nc3cc(-c4c[nH]c5ccccc45)n[nH]3)n2N)cc(OC)c1OC` [Compound 11b, N-(3-(1H-indol-3-yl)-1H-pyrazol-5-yl)-2-((4-amino-5–(3,4,5-trimethoxyphenyl)-4H-1,2,4-triazol-3-yl)thio)acetamide] registered a melting point of 259 to 261 °C. In addition, the inhibition at 10 µM in data set [1] was determined as 72.1 ± 1.62%. In data set [2], the IC50 at 48 h worked out at 20.2 ± 4.08 µM. In data set [3], the IC50 is 5.73 ± 1.69 µM and the inhibition at 10 µM is 80.3 ± 3.56%. For the same compound, in data set [4], the inhibition at 10 µM was found to be 72.7 ± 4.94% and the IC50 is 10.6 ± 1.42 µM. Moreover, in data set [5], the inhibition at 10 µM is 96.4 ± 1.16% and the IC50 stood at 3.09 ± 0.41 µM. In data set [6], the inhibition at 10 µM was 32.6 ± 3.42% and the IC50 was found to be 29.8 ± 4.05 µM.

Regarding `COc1ccc(-c2nnc(SCC(=O)Nc3cc(-c4c[nH]c5ccccc45)n[nH]3)n2N)cc1` [Compound 11e, N-(3-(1H-indol-3-yl)-1H-pyrazol-5-yl)-2-((4-amino-5–(4-methoxyphenyl)-4H-1,2,4-triazol-3-yl)thio)acetamide], the melting point fell in the range of 238 to 240 °C. Moreover, the inhibition at 10 µM in data set [1] was 67.3 ± 1.39%. In addition, the IC50 at 48 h in data set [2] is 4.94 ± 0.75 µM. In data set [3], the IC50 worked out at 11.7 ± 1.64 µM and the inhibition at 10 µM stood at 54.7 ± 14.8%. For the same compound, in data set [4], the inhibition at 10 µM came to 63.5 ± 20% and the IC50 is 10.4 ± 2.86 µM. In addition, in data set [5], the inhibition at 10 µM was determined as 98.7 ± 0.418% and the IC50 turned out to be 4.32 ± 0.53 µM. In data set [6], the inhibition at 10 µM came out at 47.9 ± 9.44% and the IC50 amounted to 21.4 ± 4.46 µM.

In the case of `Nn1c(SCC(=O)Nc2cc(-c3c[nH]c4ccccc34)n[nH]2)nnc1-c1ccncc1` [Compound 11o, N-(3-(1H-indol-3-yl)-1H-pyrazol-5-yl)-2-((4-amino-5-(pyridin-4-yl)-4H-1,2,4-triazol-3-yl)thio)acetamide], the melting point lay in the range of 170 to 172 °C. Further, the IC50 at 48 h in data set [2] was found to be 21.8 ± 1.76 µM. Further, the IC50 in data set [3] was 38.3 ± 1.75 µM. For the same compound, the IC50 in data set [4] is 33.4 ± 7.97 µM. In data set [5], the IC50 was 66 ± 3.48 µM. Also, the 50% inhibitory concentration (IC50) in data set [6] turned out to be 30.3 ± 7 µM.

On to `COc1ccc(-c2nnc(SCC(=O)Nc3cc(-c4c[nH]c5ccccc45)n[nH]3)s2)cc1` [Compound 10e, N-(3-(1H-indol-3-yl)-1H-pyrazol-5-yl)-2-((5-(4-methoxyphenyl)-1,3,4-thiadiazol-2-yl)thio)acetamide], for which the inhibition at 10 µM in data set [1] was 85.5 ± 1.26%; in data set [3], 92.5 ± 0.391%; in data set [4], 95.5 ± 0.354%; in data set [5] it was 98.7 ± 1.05%; in data set [6] it was 92.2 ± 1.01%. For the same compound, the IC50 at 48 h in data set [2] was 0.89 ± 2.32 µM. Also, the IC50 in data set [3] is 0.852 ± 0.43 µM; in data set [4] it was 0.801 ± 0.09 µM; in data set [5] it was 0.193 ± 0.09 µM; in data set [6], 0.834 ± 0.09 µM.

`O=C(CSc1nnc(-c2ccc(Cl)cc2)s1)Nc1cc(-c2c[nH]c3ccccc23)n[nH]1` [Compound 10f, N-(3-(1H-indol-3-yl)-1H-pyrazol-5-yl)-2-((5-(4-chlorophenyl)-1,3,4-thiadiazol-2-yl)thio)acetamide]: the inhibition at 10 µM in data set [1] stood at 60.9 ± 6.65%; in data set [3], 58.7 ± 28.6%; in data set [4] it was 90.3 ± 2.77%; in data set [5] it was 95.8 ± 3.98%; in data set [6], 85.2 ± 3.63%. Also, in data set [2], the IC50 at 48 h is 2.56 ± 0.9 µM. Further, the IC50 in data set [3] was determined as 8.86 ± 7.04 µM; in data set [4], 3.34 ± 0.6 µM; in data set [5], 0.991 ± 0.52 µM; in data set [6], 4.33 ± 0.3 µM.

As for `O=C(CSc1nnc(-c2cc(Cl)cc(Cl)c2)s1)Nc1cc(-c2c[nH]c3ccccc23)n[nH]1` [Compound 10a, N-(3-(1H-indol-3-yl)-1H-pyrazol-5-yl)-2-((5-(3,5-dichlorophenyl)-1,3,4-thiadiazol-2-yl)thio)acetamide], the inhibition at 10 µM stood at 87.6 ± 2.19% in data set [1]; 95.7 ± 0.624% in data set [3]; 76 ± 3.39% in data set [4]; 96 ± 2.31% in data set [5]; 85.6 ± 3.54% in data set [6]. Also, the IC50 at 48 h in data set [2] stood at 1.33 ± 0.07 µM. Moreover, the IC50 in data set [3] was 0.141 ± 0.01 µM; in data set [4], 4.45 ± 0.42 µM; in data set [5] it was 0.0527 ± 0.02 µM; in data set [6] it was 0.433 ± 0.1 µM.

Broadly, the inhibition is the share of the control response that was lost under treatment. One may read the IC50 as the point on the concentration scale where inhibition reaches its midpoint. One may read the melting point as the temperature, or range, at which the solid turns liquid.
